# Results as given in patent publication US8044052B2, “Biaryl ether urea compounds” (Pfizer Inc., priority 2006, dated 2011).
# Counter-ions that a name gives are not always drawn.
# Biological target: T1, Human FAAH (Homo sapiens, UniProt O00519)
# T1 construct: made in house
# T1 sequence (O00519 1-579): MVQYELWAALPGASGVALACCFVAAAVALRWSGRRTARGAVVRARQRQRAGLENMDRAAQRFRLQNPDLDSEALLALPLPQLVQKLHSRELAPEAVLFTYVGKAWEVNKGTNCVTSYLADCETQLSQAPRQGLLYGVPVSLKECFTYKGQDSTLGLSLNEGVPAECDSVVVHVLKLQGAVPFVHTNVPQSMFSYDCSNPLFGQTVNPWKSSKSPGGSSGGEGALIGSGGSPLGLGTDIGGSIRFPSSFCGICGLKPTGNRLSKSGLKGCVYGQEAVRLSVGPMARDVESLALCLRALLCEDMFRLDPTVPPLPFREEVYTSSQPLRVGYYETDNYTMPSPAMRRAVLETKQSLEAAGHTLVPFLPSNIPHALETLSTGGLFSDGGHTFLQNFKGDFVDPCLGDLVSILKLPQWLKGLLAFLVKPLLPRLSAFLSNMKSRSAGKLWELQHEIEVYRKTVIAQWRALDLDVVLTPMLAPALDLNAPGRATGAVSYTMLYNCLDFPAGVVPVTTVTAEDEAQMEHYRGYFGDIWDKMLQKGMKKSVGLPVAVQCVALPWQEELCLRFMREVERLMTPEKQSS
# Test: FAAH assay (glutamate dehydrogenase-coupled, oleamide substrate, absorbance at 340 nm)
# Type: biochemical
# Details: irreversible inhibition, 1-4 nM FAAH, pH 7.4, 30° C., 90 min
# Description: The FAAH assay was carried out in 384-well clear polystyrene plates in a total volume of 50 μl per well. All percents are by volume. To each well, was placed the reaction mixture (40 μl) containing 1-4 nM FAAH, 50 mM NaPi, pH 7.4, 3 mM α-ketoglutarate, 0.15 mM NADH, 7.5 U/ml glutamate dehydrogenase, 2 mM ADP, 1 mM EDTA, and 0.1% Triton X-100 (The concentration shown for each component is the final concentration in the assay). […] This was immediately followed by the addition of 5 μl oleamide (500 μM) dissolved in 75% EtOH/25% DMSO and the reaction mixture was mixed for 1.5 min. The final concentrations of DMSO and EtOH in the assay were each 7.5%.
# Initial velocity data (V) were obtained from the slopes of the initial progressive curves. They were plotted as a function of substrate concentration and fit to the Michaelis-Menten equation (1) using Prism (GraphPad Software, Inc., San Diego, Calif.) software to obtain Km and Vmax values.
# To obtain potencies of irreversible inhibitors, progressive curves consistent with first order inhibition kinetics (two-step irreversible inhibition mechanism) were fit to equation (2) by nonlinear least squares regressions to determine kobs values at each inhibitor concentration, where [P]t is the absorbance at time t, V0 is a constant related to the steady state rate of the uninhibited reaction, and kobs is the first order rate constant for enzyme inactivation. The inhibitor dissociation constant (Ki) and the first order rate
# [formula] constant of enzyme inactivation at infinite inhibitor concentration (kinact) were then obtained by fitting the kobs vs. [I] curves to equation (3).
row,Compound,hFAAH kinact/Ki [M⁻¹ s⁻¹]
1,4-(3-(5-methylpyridin-2-yloxy)benzylidene)-N-pyridin-3-yl)piperidine-1-carboxamide [Example 44],9480
2,4-(3-ethoxy-5-{[5-(trifluoromethyl)pyridin-2-yl]oxy}benzylidene)-N-pyridin-3-ylpiperidine-1-carboxamide trifluoroacetate [Example 74],9870
3,O=C(Nc1ccccn1)N1CCC(=Cc2cccc(Oc3ccc(C(F)(F)F)cn3)c2)CC1 [Example 9],3660
4,"O=C(Nc1ccc2cc[nH]c2n1)N1CCC(=Cc2cccc(Oc3ccc(C(F)(F)F)cn3)c2)CC1 [Example 13, N-1H-pyrrolo[2,3-b]pyridin-6-yl-4-(3-{[5-(trifluoromethyl)pyridin-2-yl]oxy}benzylidene) piperidine-1-carboxamide]",3870
5,"Cc1cnc(NC(=O)N2CCC(=Cc3cccc(Oc4ccc(C(F)(F)F)cn4)c3)CC2)cn1 [Example 22, N-(5-methyl-pyrazin-2-yll)-4-(3-{[5-(trifluoromethyl)pyridin-2-yl]oxy}benzylidene)piperidine-1-carboxamide]",12000

# Same assay, conditions: irreversible inhibition, 1-4 nM FAAH, pH 7.4, 30° C., 90 min, read-out: hFAAH kinact/Ki
row,Compound,kinact/KI [M⁻¹ s⁻¹]
1,"Cc1noc(NC(=O)N2CCC(=Cc3cccc(Oc4ccc(C(F)(F)F)cn4)c3)CC2)c1C [Example 2, N-(3,4-dimethylisoxazol-5-yl)-4-(3-{[5-(trifluoromethyl)pyridin-2-yl]oxy}benzylidene)piperidine-1-carboxamide]",5050
2,"COc1cnc(NC(=O)N2CCC(=Cc3cccc(Oc4ccc(C(F)(F)F)cn4)c3)CC2)cn1 [Example 12, N-(5-methoxypyrazin-2-yl)-4-(3-{[5-(trifluoromethyl)pyridin-2-yl]oxy}benzylidene)piperidine-1-carboxamide]",10800
3,"Cc1cccc(C(=O)NC(=O)N2CCC(=Cc3cccc(Oc4ccc(C(F)(F)F)cn4)c3)CC2)n1 [Example 16, 6-methyl-N-{[4-(3-{[5-(trifluoromethyl)pyridin-2-yl]oxy}benzylidene)piperidin-1-yl]carbonyl}pyridine-2-carboxamide]",2150
4,"Cc1noc(NC(=O)N2CCC(=Cc3cccc(Oc4ccc(F)cc4)c3)CC2)c1C [Example 19, N-(3,4-dimethylisoxazol-5-yl)-4-[3-(4-fluorophenoxy)benzylidene]piperidine-1-carboxamide]",3450
5,"COc1cncc(NC(=O)N2CCC(=Cc3cccc(Oc4ccc(C(F)(F)F)cn4)c3)CC2)n1 [Example 23, N-(6-methoxypyrazin-2-yl)-4-(3-{[5-(trifluoromethyl)pyridin-2-yl]oxy}benzylidene)piperidine-1-carboxamide]",2910
6,"Cc1nccnc1NC(=O)N1CCC(=Cc2cccc(Oc3ccc(C(F)(F)F)cn3)c2)CC1 [Example 24, N-(3-methylpyrazin-2-yl)-4-(3-{[5-(trifluoromethyl)pyridin-2-yl]oxy}benzylidene)piperidine-1-carboxamide]",2410
7,"COc1ccc(NC(=O)N2CCC(=Cc3cccc(Oc4ccc(C(F)(F)F)cn4)c3)CC2)nn1 [Example 26, N-(6-methoxypyridazin-3-yl)-4-(3-{[5-(trifluoromethyl)pyridin-2-yl]oxy}benzylidene)piperidine-1-carboxamide]",11000
8,"O=C(Nc1cncc(Cl)n1)N1CCC(=Cc2cccc(Oc3ccc(C(F)(F)F)cn3)c2)CC1 [Example 27, N-(6-chloropyrazin-2-yl)-4-(3-{[5-(trifluoromethyl)pyridin-2-yl]oxy}benzylidene)piperidine-1-carboxamide]",3900

# The remaining lines, values ahead:
row,kinact/KI [M⁻¹ s⁻¹],Compound
1,13300,"O=C(Nc1cccnc1)N1CCC(=Cc2cccc(Oc3ccc(C(F)(F)F)cn3)c2)CC1 [Example 1, N-pyridin-3-yl-4-(3-{[5-(trifluoromethyl)pyridin-2-yl]oxy}benzylidene)piperidine-1-carboxamide]"
2,7800,"Cc1ccc(NC(=O)N2CCC(=Cc3cccc(Oc4ccc(C(F)(F)F)cn4)c3)CC2)cn1 [Example 3, N-(6-methylpyridin-3-yl)-4-(3-{[5-(trifluoromethyl)pyridin-2-yl]oxy}benzylidene)piperidine-1-carboxamide]"
3,25800,"O=C(Nc1cnccn1)N1CCC(=Cc2cccc(Oc3ccc(C(F)(F)F)cn3)c2)CC1 [Example 4, N-pyrazin-2-yl-4-(3-{[5-(trifluoromethyl)pyridin-2-yl]oxy}benzylidene)piperidine-1-carboxamide]"
4,24700,"O=C(Nc1cccnn1)N1CCC(=Cc2cccc(Oc3ccc(C(F)(F)F)cn3)c2)CC1 [Example 5, N-pyridazin-3-yl-4-(3-{[5-(trifluoromethyl)pyridin-2-yl]oxy}benzylidene)piperidine-1-carboxamide]"
5,2510,"O=C(Nc1onc2ccccc12)N1CCC(=Cc2cccc(Oc3ccc(C(F)(F)F)cn3)c2)CC1 [Example 6, N-2,1-benzisoxazol-3-yl-4-(3-{[5-(trifluoromethyl)pyridin-2-yl]oxy}benzylidene)piperidine-1-carboxamide]"
6,2880,"Cc1cncc(NC(=O)N2CCC(=Cc3cccc(Oc4ccc(C(F)(F)F)cn4)c3)CC2)c1 [Example 7, N-(5-methylpyridin-3-yl)-4-(3-{[5-(trifluoromethyl)pyridin-2-yl]oxy}benzylidene)piperidine-1-carboxamide]"
7,10100,"COc1ccc(NC(=O)N2CCC(=Cc3cccc(Oc4ccc(C(F)(F)F)cn4)c3)CC2)cn1 [Example 8, N-(6-methoxypyridin-3-yl)-4-(3-{[5-(trifluoromethyl)pyridin-2-yl]oxy}benzylidene)piperidine-1-carboxamide]"
8,3070,"O=C(Nc1ccccc1)N1CCC(=Cc2cccc(Oc3ccc(C(F)(F)F)cn3)c2)CC1 [Example 10, N-phenyl-4-(3-{[5-(trifluoromethyl)pyridin-2-yl]oxy}benzylidene)piperidine-1-carboxamide]"
9,4040,"N#Cc1ccc(NC(=O)N2CCC(=Cc3cccc(Oc4ccc(C(F)(F)F)cn4)c3)CC2)cn1 [Example 11, N-(6-cyanopyridin-3-yl)-4-(3-{[5-(trifluoromethyl)pyridin-2-yl]oxy}benzylidene)piperidine-1-carboxamide hydrochloride]"
10,3190,"O=C(Nc1ccc2nn[nH]c2c1)N1CCC(=Cc2cccc(Oc3ccc(C(F)(F)F)cn3)c2)CC1 [Example 14, N-1H-1,2,3-benzotriazol-6-yl-4-(3-{[5-(trifluoromethyl)pyridin-2-yl]oxy}benzylidene)piperidine-1-carboxamide]"
11,12900,"O=C(NC(=O)N1CCC(=Cc2cccc(Oc3ccc(C(F)(F)F)cn3)c2)CC1)c1ccccn1 [Example 15, N-{[4-(3-{[5-(trifluoromethyl)pyridin-2-yl]oxy}benzylidene)piperidin-1-yl]carbonyl}pyridine-2-carboxamide]"
12,1620,"O=C(Nc1cccnc1)N1CCC(=Cc2cccc(OCc3ccccc3)c2)CC1 [Example 17, 4-[3-(benzyloxy)benzylidene]-N-pyridin-3-ylpiperidine-1-carboxamide]"
13,2730,"O=C(Nc1onc2ccccc12)N1CCC(=Cc2cccc(Oc3ccc(F)cc3)c2)CC1 [Example 18, N-2,1-benzisoxazol-3-yl-4-[3-(4-fluorophenoxy)benzylidene]piperidine-1-carboxamide]"
14,2380,"O=C(Nc1cccnc1)N1CCC(=Cc2cccc(Oc3ccc(F)cc3)c2)CC1 [Example 20, 4-[3-(4-fluorophenoxy)benzylidene]-N-pyridin-3-ylpiperidine-1-carboxamide]"
15,1850,"O=C(Nc1cnc(-c2ccccc2)cn1)N1CCC(=Cc2cccc(Oc3ccc(C(F)(F)F)cn3)c2)CC1 [Example 21, N-(5-phenyl-pyrazin-2-yl)-4-(3-{[5-(trifluoromethyl)pyridin-2-yl]oxy}benzylidene)piperidine-1-carboxamide]"
16,12100,"O=C(Nc1ccnnc1)N1CCC(=Cc2cccc(Oc3ccc(C(F)(F)F)cn3)c2)CC1 [Example 25, N-(pyridazin-4-yl)-4-(3-{[5-(trifluoromethyl)pyridin-2-yl]oxy}benzylidene)piperidine-1-carboxamide]"
